Assay results taken from US6423716B1, “Nitrogenous heterocyclic compounds” (Kyowa Hakko Kogyo Co., Ltd., priority 1998, dated 2002).

test system: not given; assay: not given; details: not given

melting point | Structure (SMILES)
248 to 250 °C | Cc1nn(C)c2ncc(C(N)=O)c(N3CCN(C(=O)Nc4ccc(Oc5ccccc5)cc4)CC3)c12 [Compound 12, 4-(5-Carbamoyl-1,3-dimethyl-4-1H-pyrazolo[3,4-b]pyridyl)-N-(4-phenoxyphenyl)-1-piperazinecarboxamide]
168 to 169 °C | Cn1cnc2c(N3CCN(C(=O)Nc4ccc(Oc5ccccc5)cc4)CC3)ncnc21
155 to 156 °C | Cn1ncc2c(N3CCN(C(=O)Nc4ccc(Oc5ccccc5)cc4)CC3)ncnc21
270 to 275 °C (dec.) | O=C(Nc1ccc([N+](=O)[O-])cc1)N1CCN(c2ncnc3nc[nH]c23)CC1
255 to 260 °C | S=C(NCc1ccccc1)N1CCN(c2ncnc3nc[nH]c23)CC1 [Compound 3, N-Benzyl-4-(6-purinyl)-1-piperazinethiocarboxamide]
208 to 214 °C | Nc1nc(N2CCN(C(=O)Nc3ccc([N+](=O)[O-])cc3)CC2)c2[nH]cnc2n1
180 to 185 °C (dec.) | Cl.Cl.Nc1nc(N2CCN(C(=S)NCc3cccnc3)CC2)c2[nH]cnc2n1
244 to 258 °C | Nc1nc(N2CCN(C(=O)Nc3ccc(Oc4ccccc4)cc3)CC2)c2[nH]cnc2n1 [Compound 5, 4-(2-Amino-6-purinyl)-N-(4-phenoxyphenyl)-1-piperazinecarboxamide]
250 to 251 °C | O=C(Nc1ccc(Oc2ccccc2)cc1)N1CCN(c2ncnc3nc[nH]c23)CC1 [Compound 1, N-(4-Phenoxyphenyl)-4-(6-purinyl)-1-piperazinecarboxamide]
210 to 211 °C | Cn1ncc2c(N3CCN(C(=S)NCc4cccnc4)CC3)ncnc21
104 to 106 °C | O=C(Nc1ccc(Oc2ccccc2)cc1)N1CCN(c2ncnc3ncccc23)CC1 [Compound 20, N-(4-Phenoxyphenyl)-4-(4-pyrido[2,3-d]pyrimidinyl)-1-piperazinecarboxamide]
169 to 170 °C | S=C(NCc1ccccc1)N1CCN(c2ncnc3ncccc23)CC1 [Compound 21, N-Benzyl-4-(4-pyrido[2,3-d]pyrimidinyl)-1-piperazinethiocarboxamide]
178 to 185 °C | Cl.Cl.S=C(NCc1cccnc1)N1CCN(c2ncnc3nc[nH]c23)CC1
160 to 163 °C | Cl.Cl.S=C(NCc1cccnc1)N1CCN(c2ncnc3c2cnn3-c2ccccc2)CC1
175 to 176 °C | Cn1ncc2c(N3CCN(C(=S)NCc4ccccc4)CC3)ncnc21
242 to 245 °C | Nc1nc(N2CCN(C(=S)NCc3ccccc3)CC2)c2[nH]cnc2n1 [Compound 7, 4-(2-Amino-6-purinyl)-N-benzyl-1-piperazinethiocarboxamide]

target: T1, human β-PDGF receptor (Homo sapiens, UniProt P09619); assay: PDGF receptor phosphorylation inhibition test; type: cell-based; details: CHO cells expressing human β-PDGF receptor cDNA; concentration inhibiting 50% of PDGF receptor phosphorylation
T1 construct: expressed in transfected cells; host or cells: Chinese hamster ovary (CHO) cells
Protocol: PDGF Receptor Phosphorylation Inhibition Test
This test was carried out according to the process disclosed in a literature [J. Biol. Chem., 266: 413-418 (1991)]. In this case, Chinese hamster ovary (CHO) cells to which human β-PDGF receptor cDNA had been inserted and in which it had been expressed were used in the test.

T1 sequence (P09619 33-1106): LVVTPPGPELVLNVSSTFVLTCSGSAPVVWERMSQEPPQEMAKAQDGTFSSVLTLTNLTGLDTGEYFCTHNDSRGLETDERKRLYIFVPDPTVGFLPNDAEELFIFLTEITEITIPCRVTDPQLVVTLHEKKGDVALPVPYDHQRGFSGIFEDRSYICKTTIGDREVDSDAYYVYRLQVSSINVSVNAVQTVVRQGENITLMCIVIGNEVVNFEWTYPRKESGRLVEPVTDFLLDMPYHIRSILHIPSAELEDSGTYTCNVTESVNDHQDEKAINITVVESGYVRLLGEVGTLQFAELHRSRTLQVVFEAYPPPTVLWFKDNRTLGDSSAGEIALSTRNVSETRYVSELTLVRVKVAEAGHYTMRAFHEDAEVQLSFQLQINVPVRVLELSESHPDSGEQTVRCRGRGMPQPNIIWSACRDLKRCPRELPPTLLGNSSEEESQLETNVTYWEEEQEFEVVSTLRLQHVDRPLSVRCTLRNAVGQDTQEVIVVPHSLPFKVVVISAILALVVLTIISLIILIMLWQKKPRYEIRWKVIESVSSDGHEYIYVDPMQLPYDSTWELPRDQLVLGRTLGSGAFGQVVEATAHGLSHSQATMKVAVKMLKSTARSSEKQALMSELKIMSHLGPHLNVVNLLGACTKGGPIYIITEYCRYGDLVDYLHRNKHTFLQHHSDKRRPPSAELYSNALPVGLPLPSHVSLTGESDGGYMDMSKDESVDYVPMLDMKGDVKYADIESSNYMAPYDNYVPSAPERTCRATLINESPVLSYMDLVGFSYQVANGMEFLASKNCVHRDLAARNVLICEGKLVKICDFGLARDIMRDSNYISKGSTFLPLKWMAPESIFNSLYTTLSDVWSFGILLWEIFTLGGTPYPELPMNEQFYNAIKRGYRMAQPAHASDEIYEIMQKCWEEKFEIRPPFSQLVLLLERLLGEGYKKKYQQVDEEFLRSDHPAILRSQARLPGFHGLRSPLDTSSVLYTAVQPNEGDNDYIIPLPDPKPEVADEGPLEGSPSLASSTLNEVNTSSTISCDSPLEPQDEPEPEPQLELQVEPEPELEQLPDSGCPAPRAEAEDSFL

IC50 [nM] | Structure (SMILES)
380 | COc1cc2ncnc(N3CCN(C(=NC#N)NCc4ccc(Cl)cc4)CC3)c2cc1OC [Compound 31, N-(4-Chlorobenzyl)-N′-cyano-4-(6,7-dimethoxy-4-quinazolinyl)-1-piperazinecarboxamidine]
190 | COc1cc2ncnc(N3CCN(C(=NC#N)NCc4ccc5c(c4)OCO5)CC3)c2cc1OC [Compound 41, N′-Cyano-4-(6,7-dimethoxy-4-quinazolinyl)-N-(3,4-methylenedioxybenzyl)-1-piperazinecarboxamidine]

same assay, conditions: CHO cells expressing human β-PDGF receptor; test compound at 10 μM

inhibition at 10 µM [%] | Structure (SMILES)
82 | COc1cc2ncnc(N3CCN(C(SC)=C(C#N)C#N)CC3)c2cc1OC [Compound 64, 4-[4-(2,2-Dicyano-1-methylthiovinyl)-1-piperazinyl]-6,7-dimethoxyquinazoline]
87 | COc1ccc(CNC(=C(C#N)C#N)N2CCN(c3ncnc4cc(OC)c(OC)cc34)CC2)cc1 [Compound 53, 4-{4-[2,2-Dicyano-1-(4-methoxybenzylamino)vinyl]-1-piperazinyl}-6,7-dimethoxyquinazoline]
82 | COc1cc2ncnc(N3CCN(C(NCc4cccc(Cl)c4)=C(C#N)C#N)CC3)c2cc1OC [Compound 51, 4-{4-[1-(3-Chlorobenzylamino)-2,2-dicyanovinyl]-1-piperazinyl}-6,7-dimethoxyquinazoline]
66 | O=C(Nc1ccc(Oc2ccccc2)cc1)N1CCN(c2ncnc3cnc(F)cc23)CC1 [Compound 22, N-(4-Phenoxyphenyl)-4-(6-fluoro-4-pyrido[3,4-d]pyrimidinyl)-1-piperazinecarboxamide]

Structure (SMILES) | inhibition at 10 µM [%]
COc1cc2ncnc(N3CCN(C(=NC#N)Oc4ccccc4)CC3)c2cc1OC [Compound 67, N-Cyano-4-(6,7-dimethoxy-4-quinazolinyl)-1-piperazinecarboximidic acid phenyl ester] | 95
